We go through 1 compound from PMC10144566, “Pharmacokinetic Profile Evaluation of Novel Combretastatin Derivative, LASSBio-1920, as a Promising Colorectal Anticancer Agent” (Pharmaceutics, 2023).

“Also recorded” adds a separate entry of the source. Like-named read-outs stand apart in the source and are kept apart here.

One data set deals with PC-9 cells. As to the kind of experiment: Annexin V/7-AAD apoptosis assay by flow cytometry, PC-9. In kind it is cell-based, human. Particulars: 0.75 µM, 48 h, negative control 2.40 ± 0.17%. The procedure:
The control group received the same amount of vehicle, of which the concentration was kept constant (below 0.5%). Cell treatments were completed in triplicate. CA4 (0.2 or 0.5 µM) was used as the positive control. Stock solutions of the compounds tested were dissolved in DMSO and diluted in the culture medium to obtain the desired concentrations.
Apoptosis assay: Apoptosis was analyzed using Annexin V/7-AAD staining followed by flow cytometry. Cells were collected and stained using an Annexin V-PE/7-AAD apoptosis detection kit. Annexin V binds to phosphatidylserine (PS) in apoptosis cells as PS translocates from the inner to the outer leaflet of the cytoplasmic membrane. 7-AAD is a fluorescent intercalator of DNA impermeable to the cell, providing a reliable indication of membrane integrity. Double staining distinguishes between viable, early apoptotic, necrotic, and late apoptotic cells. The resulting fluorescence of annexin V-PE at 583 nm and 7-AAD at 680 nm of every sample was analyzed by flow cytometry. The 7-AAD-positive and annexin V-negative cells were considered necrotic. Annexin V-positive cells (7-AAD-positive and 7-AAD-negative cells) were classified as apoptotic. 7-AAD-negative and annexin V-negative cells were deemed viable.
For orientation: A flow cytometer gives signals particle by particle.

Another data set deals with T1, EGFR-wt (Homo sapiens, UniProt P00533).
T1 construct: Eurofins
T1 sequence (P00533 25-1210): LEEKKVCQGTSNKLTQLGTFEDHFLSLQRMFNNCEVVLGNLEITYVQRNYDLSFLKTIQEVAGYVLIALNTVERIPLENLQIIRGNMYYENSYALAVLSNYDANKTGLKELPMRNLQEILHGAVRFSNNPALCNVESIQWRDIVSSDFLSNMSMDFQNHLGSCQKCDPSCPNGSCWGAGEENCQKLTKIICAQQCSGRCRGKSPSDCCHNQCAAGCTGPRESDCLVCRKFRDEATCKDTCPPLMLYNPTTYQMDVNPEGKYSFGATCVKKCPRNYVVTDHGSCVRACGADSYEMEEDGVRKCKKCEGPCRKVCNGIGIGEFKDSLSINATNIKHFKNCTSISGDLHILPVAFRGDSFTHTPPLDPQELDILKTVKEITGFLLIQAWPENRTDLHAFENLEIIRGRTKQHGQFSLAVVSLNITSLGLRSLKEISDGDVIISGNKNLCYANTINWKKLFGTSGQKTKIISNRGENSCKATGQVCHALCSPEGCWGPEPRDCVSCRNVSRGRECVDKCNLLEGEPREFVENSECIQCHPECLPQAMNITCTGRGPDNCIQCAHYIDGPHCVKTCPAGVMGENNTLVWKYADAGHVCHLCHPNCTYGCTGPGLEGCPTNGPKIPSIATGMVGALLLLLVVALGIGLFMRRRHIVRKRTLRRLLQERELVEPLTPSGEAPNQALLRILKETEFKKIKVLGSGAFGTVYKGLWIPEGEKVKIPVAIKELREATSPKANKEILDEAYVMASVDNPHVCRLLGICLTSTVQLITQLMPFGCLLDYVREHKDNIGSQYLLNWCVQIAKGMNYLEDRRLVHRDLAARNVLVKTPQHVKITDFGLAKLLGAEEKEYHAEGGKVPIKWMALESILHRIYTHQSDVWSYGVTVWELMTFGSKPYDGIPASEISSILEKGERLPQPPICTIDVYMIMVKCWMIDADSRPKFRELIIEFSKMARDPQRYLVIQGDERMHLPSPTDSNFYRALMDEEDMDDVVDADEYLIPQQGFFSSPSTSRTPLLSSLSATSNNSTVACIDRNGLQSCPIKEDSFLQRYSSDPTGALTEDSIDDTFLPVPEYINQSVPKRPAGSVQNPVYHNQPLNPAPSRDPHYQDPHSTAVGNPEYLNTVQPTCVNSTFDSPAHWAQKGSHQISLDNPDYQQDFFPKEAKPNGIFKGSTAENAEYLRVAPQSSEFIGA
As to the kind of experiment: Inhibition of EGFR, LANCE TR-FRET assay. Type of data set: biochemical. Particulars: 1 and 10 µM (either concentration); data not shown. The procedure: Inhibition of EGFR assay: The inhibition of EGFR activity was determined using the LANCE®TR-FRET (time-resolved fluorescence energy transfer) test according to the protocol described by Weber et al. (1984). The reference compound (PD153035) was tested simultaneously with LASSBio-1920 (1 and 10 µM). The LASSBio-1920 concentrations were determined based on IC50 values and the compound’s aqueous solubility. The experiment was carried out in agreement with Eurofins®’s Standard Operating Procedure.

Data set [1] addresses human CK-1δ protein kinase (Homo sapiens, UniProt P48730). As to the kind of experiment: Inhibition of human CK-1δ protein kinase (Kinase-Glo). Type of data set: biochemical. The conditions noted are these: data not shown, read-out: inhibitory activity against human CK-1δ protein kinase. Here is the method:
Inhibition of human CK-1δ protein kinase assay: Test compound (10 µL), CK-1δ enzyme (10 µL), and buffer solution (20 µL) were added to each well of a 96-well plate containing 0.1% casein as substrate and 4 µM ATP. The assay buffer solution constituents were 50 mM HEPES at pH 7.5, 0.01% Brij-35, […], 1 mM EDTA, and 0.01% NaN3. The final concentrations of DMSO were limited to 1%. After 60 min of incubation at 30 °C, the reaction was stopped by the addition of 40 µL of Kinase-Glo®. The luminescence was measured after 10 min using a Fluostar Optima multimode reader (BMG Labtechnologies GmbH, Offenburg, Germany). First, LASSBio-1920 was tested at concentrations of 10 µM, and 5 µM of SB415826, a potent CK-1δ enzyme inhibitor, was employed as a positive control.
A general note: Kinase-Glo reads ATP consumption through a luciferase reaction.

Data set [2] is described as follows: Chemical stability in buffer (HPLC). Type of data set: physicochemical. The conditions noted are these: 0–240 min.
A short description of data set [3]: In vitro plasma stability. In kind it is in vitro ADME. Particulars: rat plasma, 37 °C, 100 μM. Here is the method: The in vitro stability of the test compounds was studied in rat plasma. Blood from different Wistar rats was centrifuged with heparin at 20 °C for 15 min at 2000 rpm to separate the plasma, which was diluted to 80% with 0.05 M phosphate-buffered saline (PBS, pH 7.4) at 37 °C [23]. The test compounds were added to 200 µL of preheated plasma solution to yield a final concentration of 100 μM. The final concentration of DMSO in the incubation mixture was 0.5%. The assays were performed with agitation in a water bath at 37 °C and conducted in triplicate. Samples were taken at 0, 30, 60, and 240 min. After each sampling time, 500 µL of cold methanol was added to the mixture immediately, followed by 500 µL of cold acetonitrile. The samples were mixed and centrifuged at room temperature for 15 min at 13,000 rpm. The supernatant was analyzed by HPLC (acetonitrile/water, 7:3, with 0.1% trifluoroacetic acid) using an internal standard (4-acetylbiphenyl—final concentration of 20 µM).

Another data set in a line: PAMPA-BBB permeability. In kind it is in vitro ADME. The conditions noted are these: for Papp: PAMPA. (In general: The PAMPA barrier holds no transporters, so it reflects passive diffusion.)
In data set [4] the test system is PC-3, prostate adenocarcinoma. The experiment in a line: MTT cytotoxicity assay, PC-3. Particulars: Homo sapiens, 72 h, read-out: IC50 (95% CI) PC-3.
Experimental: (§1) The cytotoxicity of the compounds was determined using the MTT assay [13]. Cells were seeded in 96-well plates as follows: 0.7 × 10^5 cells/well for adherent cancer cells, 0.3 × 10^5 cells/well for suspended cancer cells, and 0.2 × 10^5 cells/well for HPBMCs. […] The control group was treated with the vehicle. […] After incubation, the supernatant was decanted and replaced with fresh medium containing MTT (0.5 mg/mL).
(§2) Data were presented as mean ± standard error of the mean (SEM) from three independent experiments performed in triplicate, calculated using Prism 8.0 (GraphPad/Intuitive Software for Science, San Diego, CA, USA). The IC50 of the compounds was obtained using a non-linear regression of the cytotoxicity curves.
The test system of a further data set is N-87, gastric carcinoma. As to the kind of experiment: MTT cytotoxicity assay, N-87. The conditions noted are these: Homo sapiens, 72 h, read-out: IC50 (95% CI) N-87.
For data set [5], the system named is HCT-116 human colorectal cancer cells (colon carcinoma). As to the kind of experiment: MTT cytotoxicity assay, HCT-116. The conditions noted are these: for IC50: Homo sapiens.
Experimental: as §1, §2

Sequence of human CK-1δ protein kinase (P48730 whole entry): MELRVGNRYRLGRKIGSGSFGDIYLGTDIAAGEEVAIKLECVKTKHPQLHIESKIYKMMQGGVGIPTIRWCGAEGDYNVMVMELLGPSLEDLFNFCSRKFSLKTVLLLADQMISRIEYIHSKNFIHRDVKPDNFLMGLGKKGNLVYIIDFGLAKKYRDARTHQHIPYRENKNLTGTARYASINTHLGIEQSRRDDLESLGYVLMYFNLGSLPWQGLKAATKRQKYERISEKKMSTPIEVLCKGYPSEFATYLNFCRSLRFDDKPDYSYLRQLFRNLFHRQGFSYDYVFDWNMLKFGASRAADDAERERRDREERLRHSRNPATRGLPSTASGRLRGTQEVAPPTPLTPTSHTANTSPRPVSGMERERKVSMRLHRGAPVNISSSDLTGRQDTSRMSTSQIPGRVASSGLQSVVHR
Experimental for N-87, gastric carcinoma: as §1, §2
Experimental for PAMPA-BBB permeability: For this, two 96-well plates were placed one above the other, and between them, an artificial hydrophobic polyvinylidene fluoride (PVDF) membrane, which was impregnated with a lipid solution. The top plate works as the donor compartment and the bottom one as the receiver compartment.
Parallel artificial membrane permeation assay for the blood–brain barrier (PAMPA-BBB): It was performed according to the previously reported [26] method established by Lu and coworkers [27].

What is called IC50 is the point on the concentration scale where inhibition reaches its midpoint. In the case of `COc1cc(C(=O)N/N=C/c2cc3ccccc3s2)cc(OC)c1OC` [LASSBio-1920, (E)-N′-(Benzo[b]thiophen-2-ylmethylene)-3,4,5-trimethoxybenzohydrazide], the “apoptotic events PC-9 cells” value in the data set on PC-9 cells is reported as 15.49 ± 1.28%. The “enzymatic inhibition of EGFR-wt” value on EGFR-wt is on record as “less than 20%”. Also, the inhibition at 10 µM in [1] is less than 10%. Further, the “chemical stability at pH 2” value in [2] (HCl buffer pH 2, 37 °C) is listed as “unstable at pH 2; also recorded: unstable in an acid medium (HCl buffer, pH 2)”. Moreover, in [2] (phosphate buffer pH 7.4, 37 °C), the “chemical stability at pH 7.4” value is on record as “stable at pH 7.4 at all time points; also recorded: stable in a practically neutral medium (phosphate buffer, pH 7.4)”. For the same compound, the plasma stability entry in data set [3] is listed as “stable at all time points of the assay; also recorded: not metabolized by plasma esterases, exhibiting substantial stability; also recorded: has plasma stability”. Besides, the Papp in “PAMPA-BBB permeability” (PAMPA-BBB classification: absorbed by the Central Nervous System, read-out: CNS Permeability) was more than 3.47 ×10⁻⁶ cm/s; in “PAMPA-BBB permeability” (PAMPA-BBB, mean, read-out: Pe (Experimental Mean)), 11.5 ×10⁻⁶ cm/s. Also, in the data set “PAMPA-BBB permeability” (PAMPA-BBB, mean), the “Pe (Experimental Mean)” value is recorded as 11.48 10–6 cm/s. Also, in the data set “PAMPA-BBB permeability” (PAMPA-BBB, replicate 1), the “Pe1 (Experimental)” value is on record as 12.43 10–6 cm/s. The “Pe2 (Experimental)” value in the data set “PAMPA-BBB permeability” (PAMPA-BBB, replicate 2) is listed as 10.53 10–6 cm/s. Besides, the IC50 in data set [4] is 1680 nM; with N-87, gastric carcinoma, 440 nM; in data set [5] (HCT-116, 24 h, read-out: IC50 (95% CI) HCT-116 24 h), more than 100000 nM; in data set [5] (HCT-116, 48 h, read-out: IC50 (95% CI) HCT-116 48 h), 2700 nM; in data set [5] (HCT-116, 72 h, read-out: IC50 (95% CI) HCT-116), 60 nM; in data set [5] (HCT-116, 72 h, read-out: IC50 (95% CI) HCT-116 72 h), 60 nM. Besides, in data set [5] (IC50 for HPBMC/IC50 for the tumor cell line, 72 h), the “SI HPBMC/HCT-116” value is 2.3.
